Data from patent publication US4604380A, “C-23-substituted mycaminosyltylonolide compounds, pharmaceutical compositions and methods of use” (Eli Lilly and Company, priority 1985, dated 1986).
In brackets after ≈: the same amount, converted by molar mass. Several values for one entry are separate records, joined by “and”; a condition that tells them apart may be missing. Identical values can stand only once. Like-named read-outs stand apart in the source and are kept apart here.

Tests used:
Staphylococcus aureus = assay: ED50 vs. Staphylococcus aureus experimental infection in mice (Table V); format: in vivo; details: sc, subcutaneous, two doses, dose protecting 50% of animals, read-out: ED50 Subcutaneous
Protocol: (§1) Certain formula 1a compounds have also shown in vivo antimicrobial activity against experimental bacterial infections. When two doses of test compound were administered to mice in experimental infections, the activity observed was measured as an ED50 value [effective dose in mg/kg to protect 50% of the test animals: see Warren Wick, et al., J. Bacteriol. 81, 233-235 (1961)].

Pasteurella multocida = assay: Activity in Pasteurella multocida-infected one-day-old chicks (Table VIII); format: in vivo; details: subcutaneous 30 mg/kg × 2, 1 and 4 hours post-challenge, all non-medicated chicks died within 24 hours
Protocol: Table VIII summarizes the results of tests in which illustrative compounds were evaluated against a Pasteurella infection in one-day-old chicks. The compounds were administered parenterally after challenge of the chicks with Pasteurella multocida (0.1 mL of a 10^-4 dilution of a twenty-hour tryptose broth culture of an avian P. multocida given subcutaneously). In these tests, all non-medicated infected chicks died within 24 hours of Pasteurella challenge. In the tests summarized in Table VIII, the compounds were administered by subcutaneous injection at a dosage of 30 mg/kg, 1 and 4 hours post-challenge of the chicks with P. multocida.

Streptococcus sp. 19F = assay: MIC, conventional broth-dilution microtiter test (Table IV); format: cell-based
Protocol: (§2) The MIC's s in Table III were determined by standard agar-dilution assays. The MIC's in Table IV were obtained using a conventional broth-dilution microtiter test.

Mycoplasma synoviae 40A = assay: as above; format: cell-based; details: Mycoplasmopsis synoviae, 40A
Protocol: as §2

[1] = tested on: Mycoplasma gallisepticum 36H; assay: as above; format: cell-based; details: Mycoplasmoides gallisepticum; broth-dilution microtiter; Mycoplasma gallisepticum 36H; read-out: MIC
Protocol: as §2

[2] = tested on: Bordetella bronchisepticum 95B; assay: as above; format: cell-based
Protocol: as §2

[3] = tested on: Pasteurella multocida 68C; assay: as above; format: cell-based
Protocol: as §2

[4] = tested on: Mycoplasma gallisepticum 29C; assay: as above; format: cell-based; details: Mycoplasmoides gallisepticum, 29C
Protocol: as §2

[5] = tested on: Pasteurella hemolytica 41D; assay: as above; format: cell-based
Protocol: as §2

[6] = tested on: Pasteurella multocida 17E; assay: as above; format: cell-based
Protocol: as §2

[7] = tested on: Pasteurella multocida 60A; assay: as above; format: cell-based
Protocol: as §2

Mycoplasma hyorhinis 29E = assay: as above; format: cell-based; details: broth-dilution microtiter; Mycoplasma hyorhinis 29E; read-out: MIC
Protocol: as §2

[8] = tested on: Mycoplasma gallisepticum 15E; assay: as above; format: cell-based; details: Mycoplasmoides gallisepticum; broth-dilution microtiter; Mycoplasma gallisepticum 15E; read-out: MIC
Protocol: as §2

[9] = tested on: Mycoplasma hyopneumoniae S5972; assay: as above; format: cell-based; details: Mesomycoplasma hyopneumoniae; broth-dilution microtiter; Mycoplasma hyopneumoniae S5972; read-out: MIC
Protocol: as §2

[10] = tested on: Pasteurella multocida 40G; assay: as above; format: cell-based
Protocol: as §2

[11] = tested on: Pasteurella multocida 22A; assay: as above; format: cell-based
Protocol: as §2

[12] = tested on: Pasteurella hemolytica 23C; assay: as above; format: cell-based
Protocol: as §2

[13] = tested on: Pasteurella hemolytica 22C; assay: as above; format: cell-based; details: Pasteurella, 22C
Protocol: as §2

[14] = tested on: Staphylococcus aureus 19C; assay: as above; format: cell-based
Protocol: as §2

[15] = tested on: Streptococcus pneumoniae Park I; assay: microbe, parasite or virus in culture; format: cell-based; details: Streptococcus pneumoniae
Protocol: as §2

[16] = tested on: Streptococcous pneumoniae; assay: ED50 vs. Streptococcous pneumoniae experimental infection in mice (Table VII); format: in vivo; details: Mus musculus, sc, subcutaneous, two doses, read-out: ED50 Subcutaneous
Protocol: as §1

Streptococcus pyogenes = assay: ED50 vs Streptococcus pyogenes experimental infection in mice (Table VI); format: in vivo; details: two doses, several values = results from more than one test; for ED50: po, read-out: ED50 Oral
Protocol: as §1

[17] = tested on: Streptococcus Group D X66; assay: MIC, standard agar-dilution assay (Table III); format: cell-based
Protocol: as §2

[18] = tested on: Staphylococcus epidermidis 222; assay: MIC, standard agar-dilution assay (Table III); format: cell-based; details: agar dilution; Staphylococcus epidermidis 222; read-out: MIC
Protocol: as §2

[19] = tested on: Staphylococcus aureus V41; assay: MIC, standard agar-dilution assay (Table III); format: cell-based; details: Staphylococcus aureus V41, penicillin-resistant strain
Protocol: as §2

[20] = tested on: Haemophilus influenzae C.L.; assay: MIC, standard agar-dilution assay (Table III); format: cell-based
Protocol: as §2

[21] = tested on: Staphylococcus aureus S13E; assay: MIC, standard agar-dilution assay (Table III); format: cell-based
Protocol: as §2

[22] = tested on: Haemophilus influenzae 76; assay: MIC, standard agar-dilution assay (Table III); format: cell-based; details: agar dilution; Haemophilus influenzae 76, ampicillin-resistant strain; read-out: MIC
Protocol: as §2

[23] = tested on: Streptococcus pyogenes C203; assay: MIC, standard agar-dilution assay (Table III); format: cell-based; details: agar dilution; Streptococcus pyogenes C203; read-out: MIC
Protocol: as §2

[24] = tested on: Staphylococcus epidermidis EPI1; assay: MIC, standard agar-dilution assay (Table III); format: cell-based; details: Staphylococcus epidermidis, EPI1
Protocol: as §2

[25] = tested on: Streptococcus Group D 2041; assay: MIC, standard agar-dilution assay (Table III); format: cell-based; details: GROUPD2041
Protocol: as §2

[26] = tested on: Staphylococcus aureus X1.1; assay: MIC, standard agar-dilution assay (Table III); format: cell-based
Protocol: as §2

[27] = tested on: Staphylococcus aureus X400; assay: MIC, standard agar-dilution assay (Table III); format: cell-based
Protocol: as §2

Structure (SMILES) | ED50 (Staphylococcus aureus) [mg/kg] | Number of Deaths/Number Treated (Pasteurella multocida) | MIC (Streptococcus sp. 19F) [µg/mL] | MIC (Mycoplasma synoviae 40A) [µg/mL] | MIC [1] [µg/mL] | MIC [2] [µg/mL] | MIC [4] [µg/mL] | MIC (Mycoplasma hyorhinis 29E) [µg/mL] | MIC [8] [µg/mL] | MIC [9] [µg/mL] | MIC [13] [µg/mL] | ED50 [16] [mg/kg] | ED50 (Streptococcus pyogenes) [mg/kg] | MIC [17] [µg/mL] | MIC [18] [µg/mL] | MIC [19] [µg/mL] | MIC [21] [µg/mL] | MIC [22] [µg/mL] | MIC [23] [µg/mL] | MIC [24] [µg/mL] | also measured
CCC1OC(=O)CC(O)C(C)C(OC2OC(C)C(O)C(N(C)C)C2O)C(CC=O)CC(C)C(=O)C=CC(C)=CC1CN1CCCC2CCCCC21 (stereo not shown) [Compound 20, 23-deoxy-23-(decahydroquinolin-1-yl)-OMT] | 10 | 6/10 and 8/10 | < 0.048 | < 0.048 | 0.78 (≈ 1.08 µM) | 6.25 (≈ 8.69 µM) | > 0.048 | 0.39 (≈ 0.542 µM) | 0.39 (≈ 0.542 µM) | < 0.024 | 3.12 (≈ 4.34 µM) | 5 | 77 | 0.25 (≈ 0.348 µM) | 0.125 (≈ 0.174 µM) | 0.25 (≈ 0.348 µM) | 0.25 (≈ 0.348 µM) | 1 (≈ 1.39 µM) | 0.125 (≈ 0.174 µM) | 0.25 (≈ 0.348 µM) | MIC ([3]; broth-dilution microtiter, Pasteurella multocida 68C, read-out: MIC): 0.78 µg/mL (≈ 1.08 µM); MIC ([5]; broth-dilution microtiter, Pasteurella hemolytica 41D, read-out: MIC): 1.56 µg/mL (≈ 2.17 µM); MIC ([6]; broth-dilution microtiter, Pasteurella multocida 17E, bovine isolate, read-out: MIC): 0.78 µg/mL (≈ 1.08 µM); MIC ([7]; broth-dilution microtiter, Pasteurella multocida 60A, avian isolate, read-out: MIC): 0.78 µg/mL (≈ 1.08 µM); MIC ([10]; broth-dilution microtiter, Pasteurella multocida 40G, read-out: MIC): 0.39 µg/mL (≈ 0.542 µM); MIC ([11]; broth-dilution microtiter, Pasteurella multocida 22A, read-out: MIC): 0.78 µg/mL (≈ 1.08 µM); MIC ([12]; broth-dilution microtiter, Pasteurella hemolytica 23C, read-out: MIC): 0.78 µg/mL (≈ 1.08 µM); MIC ([14]; broth-dilution microtiter, Staphylococcus aureus 19C, read-out: MIC): 1.56 µg/mL (≈ 2.17 µM); MIC [15]: 0.03 µg/mL (≈ 0.0417 µM); MIC ([20]; agar dilution, Haemophilus influenzae C.L., ampicillin-sensitive strain, read-out: MIC): 1 µg/mL (≈ 1.39 µM); MIC [25]: 0.25 µg/mL (≈ 0.348 µM); MIC [26]: 0.25 µg/mL (≈ 0.348 µM); MIC ([27]; agar dilution, Staphylococcus aureus X400, methicillin-resistant strain, read-out: MIC): 0.5 µg/mL (≈ 0.695 µM)
CCC1OC(=O)CC(O)C(C)C(OC2OC(C)C(O)C(N(C)C)C2O)C(CC=O)CC(C)C(=O)C=CC(C)=CC1CNC12CC3CC(CC(C3)C1)C2 (stereo not shown) [Compound 1, 23-deoxy-23-(1-adamantanylamino)-OMT] | 3.58 | 0/10 | < 0.048 | < 0.048 | 6.25 (≈ 8.55 µM) | 6.25 (≈ 8.55 µM) | 0.097 (≈ 0.133 µM) | 0.39 (≈ 0.534 µM) | 6.25 (≈ 8.55 µM) | < 0.024 | 3.12 (≈ 4.27 µM) | 2.5 | > 100 | 0.5 (≈ 0.684 µM) | 0.125 (≈ 0.171 µM) | 0.5 (≈ 0.684 µM) | 0.5 (≈ 0.684 µM) | 0.5 (≈ 0.684 µM) | 0.125 (≈ 0.171 µM) | 0.5 (≈ 0.684 µM) | MIC ([3]; Pasteurella multocida, 68C): 0.78 µg/mL (≈ 1.07 µM); MIC ([5]; Pasteurella, 41D): 1.56 µg/mL (≈ 2.13 µM); MIC ([6]; Pasteurella multocida, 17E): 0.78 µg/mL (≈ 1.07 µM); MIC ([7]; Pasteurella multocida, 60A): 0.78 µg/mL (≈ 1.07 µM); MIC ([10]; Pasteurella multocida, 40G): 0.78 µg/mL (≈ 1.07 µM); MIC ([11]; Pasteurella multocida, 22A): 0.78 µg/mL (≈ 1.07 µM); MIC ([12]; Pasteurella, 23C): 1.56 µg/mL (≈ 2.13 µM); MIC ([14]; Staphylococcus aureus, 19C): 0.78 µg/mL (≈ 1.07 µM); MIC ([15]; read-out: MIC): 0.06 µg/mL (≈ 0.0821 µM); ED50 Oral (Streptococcus pyogenes; oral): 81.8 mg/kg × 2; MIC ([20]; Haemophilus influenzae): 2 µg/mL (≈ 2.74 µM); MIC [25]: 0.5 µg/mL (≈ 0.684 µM); MIC [26]: 0.5 µg/mL (≈ 0.684 µM); MIC ([27]; Staphylococcus aureus, X400): 0.5 µg/mL (≈ 0.684 µM)
